Read-outs that look alike come from different tables or passages of the source.
What was measured:
jack bean urease [1] = target: T1, jack bean urease (Canavalia ensiformis, UniProt P07374); settings: for Vmax (app): maximum rate at 20 µM of inhibitor concentration; for Mode of inhibition: urea 0.5-4.0 mM, inhibitor 0-20 µM; for % inhibition of urease: value in parentheses beside IC50, n = 3, concentration not given
jack bean urease [2] = target: T1, jack bean urease; test: biochemical
Method: Each tube received 400 µL of urea (20 mM) as substrate, which was then incubated for 10 min at the same temperature.
Each inhibitor’s binding mechanism was tested at various doses (0–20 µM) for kinetics investigations. […] Lineweaver Burk plots were drawn using GraphPad PRISM 7.0 to determine the values of Km (app), Vmax (app), and Ki (inhibition constant).

[3] = test system: carrageenan-induced acute inflammation in mice; test: Carrageenan-induced paw edema anti-inflammatory study; assay type: in vivo; settings: 10 mg/kg intraperitoneally, n = 6
Method: As previously mentioned in our study, carrageenan-induced acute inflammation in mice was used to measure the anti-inflammatory effect ([Ahmed et al., 2018b]). Six groups of mice were formed and each group comprised six mice, the mice fasted 16 h before of induction of inflammation by injecting the phlogistic agent (carrageenan). The right hind paw of each mouse was measured before and after the 100 µL injection of the carrageenan (1% in 0.9% saline). The test substances, standard medication (indomethacin), and control (0.9% saline) were administered intraperitoneally at 10 mg/kg body weight. For 3 h, and after the 1-h interval, the thickness (mm) of the right hind paw of each mouse was measured. The difference in thickness of paw edema of control and test substance was used to determine the percentage inhibition of inflammation by the formula given below. Percentage inhibition of inflammation=Ct−CocontrolCt−Cotreated/Ct−Cocontrol×100 (2)
Where Ct and Co are the right hind paw thickness after and before carrageenan injection.

COX-2 enzyme = target: T2, COX-2 enzyme (Homo sapiens, UniProt P35354); test: COX-2 inhibitory assay (Cayman kit); assay type: biochemical; settings: n = 3
T2 construct: purchased Cayman Chemical Company, United States Item No. 760151
T2 sequence (P35354 18-604): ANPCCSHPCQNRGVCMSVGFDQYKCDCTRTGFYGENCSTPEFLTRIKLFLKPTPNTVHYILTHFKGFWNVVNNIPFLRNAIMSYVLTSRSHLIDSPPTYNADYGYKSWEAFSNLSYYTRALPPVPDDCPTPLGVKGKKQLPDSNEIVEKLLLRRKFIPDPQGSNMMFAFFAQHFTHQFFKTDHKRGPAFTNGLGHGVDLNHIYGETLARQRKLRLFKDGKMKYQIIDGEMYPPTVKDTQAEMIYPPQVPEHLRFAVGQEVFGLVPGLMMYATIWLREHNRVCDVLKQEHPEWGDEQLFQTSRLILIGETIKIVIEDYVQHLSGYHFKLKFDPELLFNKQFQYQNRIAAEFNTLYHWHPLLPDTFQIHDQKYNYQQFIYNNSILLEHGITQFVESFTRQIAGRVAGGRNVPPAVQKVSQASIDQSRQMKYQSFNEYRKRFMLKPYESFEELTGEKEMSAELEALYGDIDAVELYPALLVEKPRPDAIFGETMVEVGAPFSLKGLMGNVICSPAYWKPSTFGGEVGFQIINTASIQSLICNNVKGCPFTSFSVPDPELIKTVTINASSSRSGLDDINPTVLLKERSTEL
Method: For the initial activity assay, 150 µL buffer, 10 µL heme, and 10 µL COX-2 enzyme were mixed in a well whereas 110 µL buffer, 10 µL heme, 10 µL COX-2 enzyme, and 40 µL test inhibitor (10 µM) were mixed for inhibitory assay using 96 wells plate.

T1 sequence (P07374 whole entry, looked up): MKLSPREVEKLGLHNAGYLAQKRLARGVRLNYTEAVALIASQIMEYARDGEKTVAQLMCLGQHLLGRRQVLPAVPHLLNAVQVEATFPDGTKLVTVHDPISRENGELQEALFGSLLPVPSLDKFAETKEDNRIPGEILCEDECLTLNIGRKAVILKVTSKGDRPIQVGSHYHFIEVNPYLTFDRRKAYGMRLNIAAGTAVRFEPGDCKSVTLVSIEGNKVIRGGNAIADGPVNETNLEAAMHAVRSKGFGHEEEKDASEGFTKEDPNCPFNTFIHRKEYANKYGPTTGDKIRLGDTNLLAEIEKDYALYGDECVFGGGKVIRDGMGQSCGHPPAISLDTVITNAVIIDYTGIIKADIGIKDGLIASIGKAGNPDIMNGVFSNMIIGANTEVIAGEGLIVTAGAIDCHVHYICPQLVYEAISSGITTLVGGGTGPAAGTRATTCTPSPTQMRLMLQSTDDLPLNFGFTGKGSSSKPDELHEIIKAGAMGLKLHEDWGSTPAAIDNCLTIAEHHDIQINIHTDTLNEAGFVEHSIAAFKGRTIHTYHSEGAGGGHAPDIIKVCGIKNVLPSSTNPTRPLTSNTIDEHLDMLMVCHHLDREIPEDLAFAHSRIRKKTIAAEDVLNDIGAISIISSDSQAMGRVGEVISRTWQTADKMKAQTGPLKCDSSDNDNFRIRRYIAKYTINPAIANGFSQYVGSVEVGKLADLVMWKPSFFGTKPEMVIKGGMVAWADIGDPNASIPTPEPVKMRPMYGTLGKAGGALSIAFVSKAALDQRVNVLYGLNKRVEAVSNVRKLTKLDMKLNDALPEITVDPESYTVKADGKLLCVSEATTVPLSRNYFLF

| Compound | melting point | Vmax (app) (jack bean urease [1]; Lineweaver Burk plot) | Mode of inhibition (jack bean urease [1]) | % inhibition of urease (jack bean urease [1]) | IC50 (jack bean urease [2]) | Ki (jack bean urease [2]) | Paw edema in mm (mean ± SEM) ([3]; 0 h) | % inhibition of paw edema ([3]; 1 h) | Paw edema in mm (mean ± SEM) ([3]; 1 h) | % inhibition of paw edema ([3]; 2 h) | Paw edema in mm (mean ± SEM) ([3]; 2 h) | % inhibition of paw edema ([3]; 3 h) | Paw edema in mm (mean ± SEM) ([3]; 3 h) | inhibition at 10 µM (COX-2 enzyme) | IC50 (jack bean urease [1]; read-out: IC50 (µM), mean ± SEM, jack bean urease, n = 3, thiourea as standard) | Ki (jack bean urease [1]; read-out: Ki (inhibition constant), secondary Lineweaver Burk plot) | Km (jack bean urease [1]; read-out: Km (app), Michaelis constant at 20 µM of inhibitor concentration, Lineweaver Burk plot) |
| --- | --- | --- | --- | --- | --- | --- | --- | --- | --- | --- | --- | --- | --- | --- | --- | --- | --- |
| COc1ccc2cc([C@H](C)C(=O)Nc3ccc(S(N)(=O)=O)cc3)ccc2c1 [Conjugate 3, (S)-2-(6-methoxynaphthalen-2-yl)-N-(4-sulfamoylphenyl)propanamide] | 208 to 210 °C | 2.57 µM/min | Competitive | 89.4% | 6.69 ± 0.11 µM | 2.4 µM |  |  |  |  |  |  |  |  |  |  |  |
| COc1ccc2cc([C@H](C)C(=O)Nc3ccc(S(=O)(=O)Nc4onc(C)c4C)cc3)ccc2c1 [Conjugate 4, (S)-N-(4-(N-(3,4-dimethylisoxazol-5-yl)sulfamoyl)phenyl)-2-(6-methoxynaphthalen-2-yl)propanamide] | 241 to 243 °C |  |  | 94.1% | 25.63 ± 0.24 µM |  | 1.80 ± 0.04 (−) mm | 8.2% | 2.72 ± 0.12 mm | 45.5% | 2.53 ± 0.09 mm | 78.0% | 2.36 ± 0.11 mm | 64.5% |  |  |  |
| COc1ccc2cc([C@H](C)C(=O)Nc3ccc(S(=O)(=O)Nc4nccs4)cc3)ccc2c1 [Conjugate 5, (S)-2-(6-methoxynaphthalen-2-yl)-N-(4-(N-(thiazol-2-yl)sulfamoyl)phenyl)propanamide] | 184 to 185 °C | 0.714 µM/min | Competitive | 88.9% | 5.82 ± 0.28 µM | 5.05 µM | 1.81 ± 0.05 (−) mm | 9.1% | 2.71 ± 0.09 mm | 43.3% | 2.57 ± 0.11 mm | 75.3% | 2.43 ± 0.08 mm | 61.3% |  |  |  |
| COc1ccc2cc([C@H](C)C(=O)Nc3ccc(S(=O)(=O)Nc4ncccn4)cc3)ccc2c1 [Conjugate 6, (S)-2-(6-methoxynaphthalen-2-yl)-N-(4-(N-(pyrimidin-2-yl)sulfamoyl)phenyl)propanamide] | 163 to 165 °C | 0.363 µM/min | Mixed | 90.3% | 4.08 ± 0.1 µM | 5.58 µM |  |  |  |  |  |  |  |  |  |  |  |
| COc1ccc2cc([C@H](C)C(=O)Nc3ccc(S(=O)(=O)Nc4nccc(C)n4)cc3)ccc2c1 [Conjugate 7, (S)-2-(6-methoxynaphthalen-2-yl)-N-(4-(N-(4-methylpyrimidin-2-yl)sulfamoyl)phenyl)propanamide] | 160 to 162 °C | 0.602 µM/min | Mixed | 84.3% | 16.57 ± 0.14 µM | 9.98 µM |  |  |  |  |  |  |  |  |  |  |  |
| COc1ccc2cc([C@H](C)C(=O)Nc3ccc(S(=O)(=O)Nc4cc(C)on4)cc3)ccc2c1 [Conjugate 8, (S)-2-(6-methoxynaphthalen-2-yl)-N-(4-(N-(5-methylisoxazol-3-yl)sulfamoyl)phenyl)propanamide] | 178 to 180 °C |  |  | 87.6% | 29.64 ± 0.27 µM |  | 1.80 ± 0.08 (−) mm | 24.1% | 2.56 ± 0.14 mm | 47.0% | 2.51 ± 0.08 mm | 82.8% | 2.23 ± 0.12 mm | 75.4% |  |  |  |
| COc1ccc2cc([C@H](C)C(=O)Nc3ccc(S(=O)(=O)NC(C)=O)cc3)ccc2c1 [Conjugate 9, (S)-N-(4-(N-acetylsulfamoyl)phenyl)-2-(6-methoxynaphthalen-2-yl)propanamide] | 138 to 140 °C | 0.66 µM/min | Mixed | 85.7% | 20.32 ± 0.12 µM | 2.61 µM |  |  |  |  |  |  |  |  |  |  |  |
| COc1ccc2cc([C@H](C)C(=O)Nc3ccc(S(=O)(=O)NC(=N)N)cc3)ccc2c1 [Conjugate 10, (S)-N-(4-(N-carbamimidoylsulfamoyl)phenyl)-2-(6-methoxynaphthalen-2-yl)propanamide] |  | 1.96 µM/min | Competitive | 89.1% | 5.06 ± 0.29 µM | 3.56 µM |  |  |  |  |  |  |  |  |  |  |  |
| COc1ccc2c(c1)c(CC(=O)O)c(C)n2C(=O)c1ccc(Cl)cc1 [Indomethacin, reference compound] |  |  |  |  |  |  | 1.81 ± 0.05 (−) mm | 20.1% | 2.61 ± 0.14 mm | 55.2% | 2.41 ± 0.09 mm | 86.8% | 2.14 ± 0.09 mm |  |  |  |  |
| COc1ccc2cc([C@H](C)C(=O)O)ccc2c1 [Naproxen, reference compound] |  |  |  |  |  |  | 1.81 ± 0.06 (−) mm | 21.1% | 2.60 ± 0.13 mm | 46.3% | 2.53 ± 0.11 mm | 76.1% | 2.41 ± 0.12 mm |  |  |  |  |
| NC(N)=S [Thiourea, reference compound] |  | 18.61 µM/min | Competitive | 92.3% |  |  |  |  |  |  |  |  |  |  | 22.6 ± 0.23 µM | 18.2 µM | 2180 µM |
